Assay results taken from PubChem BioAssay AID1963844 (Molecular Pharmacology Branch, DTP, NCI, 2024).
pIC50: −log10 of the molar value.

Tested on: 422866-222-R5-J1-PDC complex spheroid viability
Assay: Anticancer human tumor 422866-222-R5-J1-PDC patient-derived pancreatic adenocarcinoma cell line growth inhibition [POLQ]
Details: for pIC50: curve of first compound; for viability, T/C: stronger effect = lower value
In short: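 Patient-derived tumour cells were co-cultured with HUVEC and mesenchymal stem cells as multicellular spheroids at 37 °C. They were treated with POLQ inhibitors (novobiocin, ART-558, RP6685) alone or combined with other agents. Top concentrations were at or near clinical Cmax (otherwise 10 microM; SN-38 at 1 microM), decreasing in half-log steps.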

[1] = second compound 0.0316 µM, first compound 0.0316 µM
[2] = second compound 0.0316 µM, first compound 0.1 µM
[3] = second compound 0.0316 µM, first compound 0.316 µM
[4] = second compound 0.0316 µM, first compound 1 µM
[5] = second compound 0.0316 µM, first compound 3.16 µM
[6] = second compound 0.0316 µM, first compound 10 µM
[7] = second compound 0.1 µM, first compound 0.0316 µM
[8] = second compound 0.1 µM, first compound 0.1 µM
[9] = second compound 0.1 µM, first compound 0.316 µM
[10] = second compound 0.1 µM, first compound 1 µM
[11] = second compound 0.1 µM, first compound 3.16 µM
[12] = second compound 0.1 µM, first compound 10 µM
[13] = second compound 0.316 µM, first compound 0.0316 µM
[14] = second compound 0.316 µM, first compound 0.1 µM
[15] = second compound 0.316 µM, first compound 0.316 µM
[16] = second compound 0.316 µM, first compound 1 µM
[17] = second compound 0.316 µM, first compound 3.16 µM
[18] = second compound 0.316 µM, first compound 10 µM
[19] = second compound 1 µM, first compound 0.0316 µM
[20] = second compound 1 µM, first compound 0.1 µM
[21] = second compound 1 µM, first compound 0.316 µM
[22] = second compound 1 µM, first compound 1 µM
[23] = second compound 1 µM, first compound 3.16 µM
[24] = second compound 1 µM, first compound 10 µM
[25] = second compound 3.16 µM, first compound 0.0316 µM
[26] = second compound 3.16 µM, first compound 0.1 µM
[27] = second compound 3.16 µM, first compound 0.316 µM
[28] = second compound 3.16 µM, first compound 1 µM
[29] = second compound 3.16 µM, first compound 3.16 µM
[30] = second compound 3.16 µM, first compound 10 µM
[31] = second compound 10 µM, first compound 0.0316 µM
[32] = second compound 10 µM, first compound 0.1 µM
[33] = second compound 10 µM, first compound 0.316 µM
[34] = second compound 10 µM, first compound 1 µM
[35] = second compound 10 µM, first compound 3.16 µM
[36] = second compound 10 µM, first compound 10 µM
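Further: spheroids exposed to compounds for one week before readout.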
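Wherever viability, T/C is given: percent of DMSO vehicle wells luminescence so 100% = untreated viability.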

CCc1cc2c(N3CCc4c(cc(Cn5ccnc5)cc4-c4cn(C)nc4C(F)(F)F)C3=O)ccnc2c(OC)n1 + Cc1cccc(N(C)C(=O)C2C(O)CCN2c2nc(C)cc(C(F)(F)F)c2C#N)c1
pIC50 (second compound 0.0316 µM): < 5.00 | pIC50 (second compound 0.1 µM): < 5.00 | pIC50 (second compound 0.316 µM): < 5.00 | pIC50 (second compound 1 µM): < 5.00 | pIC50 (second compound 3.16 µM): < 5.00 | pIC50 (second compound 10 µM): < 5.00 | viability, T/C [1]: 96.1% | viability, T/C [2]: 99.6% | viability, T/C [3]: 93.3% | viability, T/C [4]: 88.2% | viability, T/C [5]: 87.6% | viability, T/C [6]: 91.8% | viability, T/C [7]: 88.4% | viability, T/C [8]: 87.9% | viability, T/C [9]: 83.5% | viability, T/C [10]: 112% | viability, T/C [11]: 91.4% | viability, T/C [12]: 99.2% | viability, T/C [13]: 90.7% | viability, T/C [14]: 84.7% | viability, T/C [15]: 91.7% | viability, T/C [16]: 96.3% | viability, T/C [17]: 96.2% | viability, T/C [18]: 112% | viability, T/C [19]: 73% | viability, T/C [20]: 80.2% | viability, T/C [21]: 86.1% | viability, T/C [22]: 98.2% | viability, T/C [23]: 97.7% | viability, T/C [24]: 114% | viability, T/C [25]: 87.4% | viability, T/C [26]: 87.6% | viability, T/C [27]: 89.5% | viability, T/C [28]: 85.4% | viability, T/C [29]: 108% | viability, T/C [30]: 115% | viability, T/C [31]: 100% | viability, T/C [32]: 94.2% | viability, T/C [33]: 90.7% | viability, T/C [34]: 93.5% | viability, T/C [35]: 107% | viability, T/C [36]: 105%

COc1cc2cc(C(=O)CCC(=O)O)sc2cc1OC + Cc1cccc(N(C)C(=O)C2C(O)CCN2c2nc(C)cc(C(F)(F)F)c2C#N)c1
pIC50 (second compound 0.0316 µM): < 5.00 | pIC50 (second compound 0.1 µM): < 5.00 | pIC50 (second compound 0.316 µM): < 5.00 | pIC50 (second compound 1 µM): < 5.00 | pIC50 (second compound 3.16 µM): < 5.00 | pIC50 (second compound 10 µM): < 5.00 | viability, T/C [1]: 95.6% | viability, T/C [2]: 106% | viability, T/C [3]: 98.6% | viability, T/C [4]: 90.5% | viability, T/C [5]: 85.4% | viability, T/C [6]: 103% | viability, T/C [7]: 101% | viability, T/C [8]: 91.1% | viability, T/C [9]: 82.6% | viability, T/C [10]: 101% | viability, T/C [11]: 75.5% | viability, T/C [12]: 121% | viability, T/C [13]: 116% | viability, T/C [14]: 90.3% | viability, T/C [15]: 91.8% | viability, T/C [16]: 93.4% | viability, T/C [17]: 93.7% | viability, T/C [18]: 116% | viability, T/C [19]: 94.9% | viability, T/C [20]: 113% | viability, T/C [21]: 98.2% | viability, T/C [22]: 80.3% | viability, T/C [23]: 87.9% | viability, T/C [24]: 117% | viability, T/C [25]: 107% | viability, T/C [26]: 101% | viability, T/C [27]: 109% | viability, T/C [28]: 93.1% | viability, T/C [29]: 85.7% | viability, T/C [30]: 121% | viability, T/C [31]: 88.6% | viability, T/C [32]: 93% | viability, T/C [33]: 103% | viability, T/C [34]: 75.2% | viability, T/C [35]: 79.6% | viability, T/C [36]: 112%
